From paper PMC5101133 (Nature biotechnology, 2016)

Legend:
Test in all cases: NADH fluorescence
Type in all cases: biochemical
Settings in all cases: 1 mM NAD+, 50 mM Tris pH 8.0, 150 mM NaCl, 0.1% Triton X-100
[1] = target: T1, Hfd1p^CΔ25 (MBP-Hfd1^CΔ25) (Saccharomyces cerevisiae, UniProt Q04458)
T1 sequence (Q04458 1-507): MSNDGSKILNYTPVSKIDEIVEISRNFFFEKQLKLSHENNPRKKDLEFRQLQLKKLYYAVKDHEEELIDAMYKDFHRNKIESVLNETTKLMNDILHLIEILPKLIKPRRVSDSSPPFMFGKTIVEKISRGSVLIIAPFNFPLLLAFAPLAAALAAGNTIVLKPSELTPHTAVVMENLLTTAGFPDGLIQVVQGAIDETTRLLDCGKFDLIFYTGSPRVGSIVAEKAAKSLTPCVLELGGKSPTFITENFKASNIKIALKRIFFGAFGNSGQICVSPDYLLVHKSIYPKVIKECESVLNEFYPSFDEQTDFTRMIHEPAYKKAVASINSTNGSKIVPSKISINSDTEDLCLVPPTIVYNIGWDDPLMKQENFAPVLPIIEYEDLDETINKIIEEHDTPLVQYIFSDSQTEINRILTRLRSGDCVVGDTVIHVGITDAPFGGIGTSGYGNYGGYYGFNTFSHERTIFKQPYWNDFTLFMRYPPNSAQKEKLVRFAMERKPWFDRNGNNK

ALDH3A1 = target: T2, ALDH3A1 (Homo sapiens, UniProt P30838)
T2 sequence (P30838 1-453): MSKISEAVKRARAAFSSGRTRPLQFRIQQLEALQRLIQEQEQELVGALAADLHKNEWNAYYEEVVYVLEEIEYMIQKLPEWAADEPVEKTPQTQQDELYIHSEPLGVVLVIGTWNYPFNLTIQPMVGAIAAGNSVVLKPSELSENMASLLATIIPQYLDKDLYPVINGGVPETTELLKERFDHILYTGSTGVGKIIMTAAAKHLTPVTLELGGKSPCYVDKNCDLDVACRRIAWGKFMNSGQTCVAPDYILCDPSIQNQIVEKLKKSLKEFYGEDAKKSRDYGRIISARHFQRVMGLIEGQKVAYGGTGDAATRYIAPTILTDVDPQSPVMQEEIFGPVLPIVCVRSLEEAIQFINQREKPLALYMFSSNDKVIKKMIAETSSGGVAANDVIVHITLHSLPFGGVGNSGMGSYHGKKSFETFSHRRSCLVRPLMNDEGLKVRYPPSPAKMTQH

ALDH3A2^CΔ25 (FALDH) = ALDH3A2^CΔ25 (FALDH) (Homo sapiens, UniProt P51648)
ALDH3A2^CΔ25 (FALDH), sequence (P51648 1-460, stated change not applied): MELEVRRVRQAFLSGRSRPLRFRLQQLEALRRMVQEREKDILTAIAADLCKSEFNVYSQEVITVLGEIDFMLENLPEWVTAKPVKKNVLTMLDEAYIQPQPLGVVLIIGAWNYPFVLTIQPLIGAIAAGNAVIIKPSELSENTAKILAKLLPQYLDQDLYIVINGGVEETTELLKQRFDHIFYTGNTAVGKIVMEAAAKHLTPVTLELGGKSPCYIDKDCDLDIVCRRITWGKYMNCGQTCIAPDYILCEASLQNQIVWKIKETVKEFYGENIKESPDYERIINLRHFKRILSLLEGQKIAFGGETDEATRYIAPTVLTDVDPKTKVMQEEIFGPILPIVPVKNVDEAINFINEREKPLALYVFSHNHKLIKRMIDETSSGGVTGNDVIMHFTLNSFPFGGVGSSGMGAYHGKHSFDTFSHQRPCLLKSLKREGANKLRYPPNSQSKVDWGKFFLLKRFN

O=Cc1ccc(O)cc1 [4-HBz]
KM [1]: WT Hfd1p catalyzes NAD^+-dependent dehydrogenation of 4-HBz | KM (ALDH3A1): Hfd1p and ALDH3A1 show a preference for 4-HBz

CCCCCCCCCCCCCCCC=O [hexadecanal]
KM (ALDH3A2^CΔ25 (FALDH)): ALDH3A2 shows a strong substrate preference for hexadecanal over 4-HBz | KM [1]: we observed Hfd1p activity in vitro with hexadecanal, similar to that observed with 4-HBz
